Legend:
Conditions in all cases: incubation time: 72 h
BT-474 [1] = assay: normalised response (% of control), CellTiter-Glo; higher = more viable cells (100 = DMSO, 0 = benzethonium chloride kill control)
Summary of the method: (§1)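 In 384-well plates holding compound at 5 concentrations in 10-fold steps over a 10,000-fold range specific to each compound, breast cancer cell lines were seeded as 20 µl suspension and incubated 72 h. CellTox Green fluorescence was measured at 485/520 nm, after which CellTiter-Glo luminescence was measured following 10 min at room temperature. Plate signals were normalised to 0.1 % DMSO (100) and a positive kill control (0), and each value is the normalised signal at a single concentration.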

BT-549 [2] = assay: as above
Summary of the method: as §1

CAL-120 [3] = assay: as above
Summary of the method: as §1

CAL-148 [4] = assay: as above
Summary of the method: as §1

CAL-51 [5] = assay: as above
Summary of the method: as §1

CAL-85-1 [6] = assay: as above
Summary of the method: as §1

DU-4475 [7] = assay: as above
Summary of the method: as §1

HCC1143 [8] = assay: as above
Summary of the method: as §1

HCC1599 [9] = assay: as above
Summary of the method: as §1

HCC1937 [10] = assay: as above
Summary of the method: as §1

HDQ-P1 [11] = assay: as above
Summary of the method: as §1

Hs578T [12] = assay: as above
Summary of the method: as §1

MCF-10A = assay: as above
Summary of the method: as §1

MDA-MB-231 [13] = assay: as above
Summary of the method: as §1

MDA-MB-436 [14] = assay: as above
Summary of the method: as §1

MDA-MB-453 [15] = assay: as above
Summary of the method: as §1

MDA-MB-468 [16] = assay: as above
Summary of the method: as §1

MFM-223 [17] = assay: as above
Summary of the method: as §1

SK-BR-3 [18] = assay: as above
Summary of the method: as §1

BT-474 [19] = assay: normalised viability (% of control), CellTiter-Blue; higher = more viable cells (100 = DMSO, 0 = benzethonium chloride kill control)
Method: (§2)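 DSRT, CellTiter-Blue viability, 72 h incubation. Signal is normalised to DMSO and benzethonium chloride controls. Value is the normalised response at dose 1.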

BT-549 [20] = assay: as above
Method: as §2

CAL-120 [21] = assay: as above
Method: as §2

CAL-148 [22] = assay: as above
Method: as §2

CAL-51 [23] = assay: as above
Method: as §2

CAL-85-1 [24] = assay: as above
Method: as §2

DU-4475 [25] = assay: as above
Method: as §2

HCC1143 [26] = assay: as above
Method: as §2

HCC1599 [27] = assay: as above
Method: as §2

HCC1937 [28] = assay: as above
Method: as §2

HDQ-P1 [29] = assay: as above
Method: as §2

Hs578T [30] = assay: as above
Method: as §2

MDA-MB-231 [31] = assay: as above
Method: as §2

MDA-MB-436 [32] = assay: as above
Method: as §2

MDA-MB-453 [33] = assay: as above
Method: as §2

MDA-MB-468 [34] = assay: as above
Method: as §2

MFM-223 [35] = assay: as above
Method: as §2

SK-BR-3 [36] = assay: as above
Method: as §2

| Structure (SMILES) | normalised response (BT-474 [1]) [%] | normalised response (BT-549 [2]) [%] | normalised response (CAL-120 [3]) [%] | normalised response (CAL-148 [4]) [%] | normalised response (CAL-51 [5]) [%] | normalised response (CAL-85-1 [6]) [%] | normalised response (DU-4475 [7]) [%] | normalised response (HCC1143 [8]) [%] | normalised response (HCC1599 [9]) [%] | normalised response (HCC1937 [10]) [%] | normalised response (HDQ-P1 [11]) [%] | normalised response (Hs578T [12]) [%] | normalised response (MCF-10A) [%] | normalised response (MDA-MB-231 [13]) [%] | normalised response (MDA-MB-436 [14]) [%] | normalised response (MDA-MB-453 [15]) [%] | normalised response (MDA-MB-468 [16]) [%] | normalised response (MFM-223 [17]) [%] | normalised response (SK-BR-3 [18]) [%] | normalised viability (BT-474 [19]) [%] | normalised viability (BT-549 [20]) [%] | normalised viability (CAL-120 [21]) [%] | normalised viability (CAL-148 [22]) [%] | normalised viability (CAL-51 [23]) [%] | normalised viability (CAL-85-1 [24]) [%] | normalised viability (DU-4475 [25]) [%] | normalised viability (HCC1143 [26]) [%] | normalised viability (HCC1599 [27]) [%] | normalised viability (HCC1937 [28]) [%] | normalised viability (HDQ-P1 [29]) [%] | normalised viability (Hs578T [30]) [%] | normalised viability (MDA-MB-231 [31]) [%] | normalised viability (MDA-MB-436 [32]) [%] | normalised viability (MDA-MB-453 [33]) [%] | normalised viability (MDA-MB-468 [34]) [%] | normalised viability (MFM-223 [35]) [%] | normalised viability (SK-BR-3 [36]) [%] |
| --- | --- | --- | --- | --- | --- | --- | --- | --- | --- | --- | --- | --- | --- | --- | --- | --- | --- | --- | --- | --- | --- | --- | --- | --- | --- | --- | --- | --- | --- | --- | --- | --- | --- | --- | --- | --- | --- |
| C#Cc1cccc(Nc2ncnc3cc(OCCOC)c(OCCOC)cc23)c1 [Erlotinib] (1 nM) | 101 | 106 | 96.1 | 103 | 107 | 102 | 106 | 101 | 97.1 | 104 | 100 | 106 | 115 | 101 | 131 | 116 | 93 | 105 | 100 | 95 | 111 | 85 | 97.8 | 98.2 | 95.3 | 89 | 86.6 | 80.1 | 102 | 102 | 84 | 107 | 99.6 | 99.8 | 107 | 98.8 | 108 |
| CN(N=O)C(=O)N[C@@H](C=O)[C@@H](O)[C@H](O)[C@H](O)CO [Streptozocin] (1 nM) | 98.8 | 102 | 103 | 102 | 80.8 | 94.2 | 95.7 | 105 | 96.4 | 104 | 104 | 106 | 113 | 108 | 104 | 92.1 | 97.5 | 105 | 106 | 81 | 102 | 101 | 111 | 110 | 91.4 | 104 | 99 | 132 | 99.1 | 116 | 103 | 106 | 100 | 111 | 102 | 92.8 | 106 |
| C[C@]12CC[C@@H]3c4ccc(O)cc4C[C@@H](CCCCCCCCC[S+]([O-])CCCC(F)(F)C(F)(F)F)[C@H]3[C@@H]1CC[C@@H]2O (stereo partly specified) [Fulvestrant] (1 nM) | 103 | 98.4 | 97.4 | 103 | 119 | 101 | 102 | 105 | 90.3 | 96.9 | 99.3 | 111 | 103 | 101 | 105 | 112 | 97.8 | 104 | – | 70.6 | 89.9 | 77.8 | 102 | 111 | 78.7 | 97.6 | 79.1 | 94.6 | 87.6 | 93.6 | 90.2 | 79 | 106 | 100 | 93.2 | 74.9 | 108 |
| C[C@@H](Oc1cc(-c2cnn(C3CCNCC3)c2)cnc1N)c1c(Cl)ccc(F)c1Cl [Crizotinib] (1 nM) | 101 | 91.8 | 91.7 | 91.3 | 117 | 96.6 | 105 | 102 | 106 | 105 | 96.4 | 101 | 94.9 | 108 | 103 | 100 | 99.8 | 101 | – | 113 | 75.4 | 90.6 | 101 | 108 | 83.9 | 101 | 86.5 | 85.4 | 105 | 61.5 | 90.5 | 93.3 | 74.1 | 95.3 | 91.4 | 87.8 | 98.5 |
